Test results reported in ChEMBL document CHEMBL4190283, “Pharmacological characterization and binding modes of novel racemic and optically active phenylalanine-based antagonists of AMPA receptors” (Eur J Med Chem, 2017).
Active and inactive are the calls of the source. The calls are words filed in the database; no cut-off is given here.

Legend:
Glutamate receptor 2 [1] = biological target: T1, Glutamate receptor 2 (Rattus norvegicus, UniProt P19491); test: Displacement of [3H]AMPA from rat GluA2(R) receptor flip isoform expressed in sf9 insect cell membranes by TopCount method
Glutamate receptor 3 = Glutamate receptor 3 (Rattus norvegicus, UniProt P19492); test: Displacement of [3H]AMPA from rat GluA3 receptor flip isoform expressed in sf9 insect cell membranes by TopCount method
Glutamate receptor 2 [2] = biological target: T1, Glutamate receptor 2; test: Displacement of [3H]AMPA from rat GluA2(Q) receptor flop isoform by TopCount method
Rattus norvegicus = species: Rattus norvegicus; test: Selectivity ratio of Ki for rat GluA3 receptor flip isoform expressed in sf9 insect cell membranes to Ki for rat GluA2(R) receptor flip isoform expressed in sf9 insect cell membranes
[3] = biological target: Glutamate receptor 2 (Rattus norvegicus) (UniProt P19491); test: Agonist activity at rat GluA2(Q) receptor flop isoform expressed in Xenopus laevis oocytes at 300 uM by two electrode voltage clamp method; format: cell-based
[4] = biological target: Glutamate receptor 2 (Rattus norvegicus) (UniProt P19491); test: Antagonist activity at rat GluA2(Q) receptor flop isoform expressed in Xenopus laevis oocytes assessed as inhibition of (S)-glutamate-induced channel activation by two electrode voltage clamp method; format: cell-based
[5] = Displacement of [3H]KA from KA receptor in rat brain membranes by scintillation counting method; format: cell membranes, Membrane
[6] = Displacement of [3H]AMPA from AMPA receptor in rat brain membranes; format: cell membranes, Membrane
Glutamate NMDA receptor = test: Displacement of [3H]CGP39653 from NMDA receptor in rat brain membranes by scintillation counting method; format: cell membranes, Membrane
[7] = Displacement of [3H]AMPA from AMPA receptor in rat brain membranes by scintillation counting method; format: cell membranes, Membrane

T1 sequence (P19491 whole entry, canonical isoform): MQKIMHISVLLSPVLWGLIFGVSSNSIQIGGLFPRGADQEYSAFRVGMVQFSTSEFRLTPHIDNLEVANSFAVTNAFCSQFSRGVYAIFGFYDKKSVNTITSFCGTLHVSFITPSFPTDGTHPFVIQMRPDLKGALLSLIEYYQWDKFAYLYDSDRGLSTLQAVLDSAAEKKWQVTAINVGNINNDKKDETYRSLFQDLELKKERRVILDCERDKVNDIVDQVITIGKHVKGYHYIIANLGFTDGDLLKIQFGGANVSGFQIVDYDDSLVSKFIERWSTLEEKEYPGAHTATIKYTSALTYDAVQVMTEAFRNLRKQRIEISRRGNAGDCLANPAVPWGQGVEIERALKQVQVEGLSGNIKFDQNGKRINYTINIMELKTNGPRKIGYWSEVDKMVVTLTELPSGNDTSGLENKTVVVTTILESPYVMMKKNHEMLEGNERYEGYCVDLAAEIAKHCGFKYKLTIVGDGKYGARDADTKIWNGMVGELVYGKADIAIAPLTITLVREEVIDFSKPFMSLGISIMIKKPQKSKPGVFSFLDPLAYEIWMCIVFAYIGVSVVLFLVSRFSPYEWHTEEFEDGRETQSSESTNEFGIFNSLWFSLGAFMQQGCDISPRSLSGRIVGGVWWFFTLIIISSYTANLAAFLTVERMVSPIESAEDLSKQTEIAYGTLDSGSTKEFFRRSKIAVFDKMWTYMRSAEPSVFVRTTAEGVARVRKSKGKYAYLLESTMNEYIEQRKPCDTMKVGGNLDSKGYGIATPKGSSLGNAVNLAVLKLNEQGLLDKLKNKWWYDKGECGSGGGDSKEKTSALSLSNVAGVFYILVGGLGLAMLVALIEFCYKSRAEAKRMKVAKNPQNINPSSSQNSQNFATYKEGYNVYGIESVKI
Sequence of Glutamate receptor 2 (Rattus norvegicus) (P19491 whole entry, canonical isoform): as above
Sequence of Glutamate receptor 3 (P19492 whole entry, canonical isoform): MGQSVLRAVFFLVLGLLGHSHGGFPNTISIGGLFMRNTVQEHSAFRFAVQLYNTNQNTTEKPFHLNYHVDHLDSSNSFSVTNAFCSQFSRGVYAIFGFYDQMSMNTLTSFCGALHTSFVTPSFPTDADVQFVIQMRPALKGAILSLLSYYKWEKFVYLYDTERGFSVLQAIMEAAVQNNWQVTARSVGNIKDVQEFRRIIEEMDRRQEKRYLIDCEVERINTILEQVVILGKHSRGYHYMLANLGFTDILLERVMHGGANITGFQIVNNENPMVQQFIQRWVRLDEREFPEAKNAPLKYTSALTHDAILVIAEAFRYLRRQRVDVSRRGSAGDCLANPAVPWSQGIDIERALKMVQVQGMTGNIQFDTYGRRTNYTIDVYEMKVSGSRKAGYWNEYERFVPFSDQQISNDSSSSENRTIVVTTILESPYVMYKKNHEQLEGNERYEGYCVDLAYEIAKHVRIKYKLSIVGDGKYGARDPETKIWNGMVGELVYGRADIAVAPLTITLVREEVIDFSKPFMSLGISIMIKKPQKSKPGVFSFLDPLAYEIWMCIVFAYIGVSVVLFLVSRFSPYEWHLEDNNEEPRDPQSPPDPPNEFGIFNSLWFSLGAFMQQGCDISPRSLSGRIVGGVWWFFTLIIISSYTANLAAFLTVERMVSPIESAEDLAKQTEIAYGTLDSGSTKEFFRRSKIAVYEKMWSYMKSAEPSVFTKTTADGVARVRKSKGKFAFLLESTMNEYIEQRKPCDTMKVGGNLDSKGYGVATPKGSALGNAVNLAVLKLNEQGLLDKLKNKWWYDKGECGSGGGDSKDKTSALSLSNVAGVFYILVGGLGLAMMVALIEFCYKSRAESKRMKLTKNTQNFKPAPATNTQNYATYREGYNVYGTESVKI

Ki [5] [µM] | Ki (Glutamate NMDA receptor) [µM] | Ki [7] [µM] | pKi [7] | Structure (SMILES) | further results
– | – | – | – | N[C@@H](Cc1cc(-c2cc(O)ccc2O)c(Cl)c([N+](=O)[O-])c1)C(=O)O | Ki (Glutamate receptor 2 [1]): 18.4 µM; Ki (Glutamate receptor 3): > 100 µM
– | – | – | – | N[C@H](Cc1cc(-c2cc(O)ccc2O)c(Cl)c([N+](=O)[O-])c1)C(=O)O | Ki (Glutamate receptor 2 [2]): 1.74 µM; Ratio Ki (Rattus norvegicus): 4; Ki (Glutamate receptor 2 [1]): 1.71 µM; Ki (Glutamate receptor 3): 7.01 µM; Activity [3]: inactive; Kb [4]: 2.13 µM; inhibition [4]: Dose-dependent effect
– | – | – | – | N[C@@H](Cc1cc(Cl)cc(-c2cccc(O)c2)c1)C(=O)O | Ki (Glutamate receptor 2 [1]): 40.8 µM; Ki (Glutamate receptor 3): > 100 µM
– | – | – | – | N[C@H](Cc1cc(Cl)cc(-c2cccc(O)c2)c1)C(=O)O | Ki (Glutamate receptor 2 [1]): 20.7 µM; Ki (Glutamate receptor 3): > 100 µM
– | – | – | – | N[C@@H](Cc1ccc(Cl)c(-c2cccc(O)c2)c1)C(=O)O | Ki (Glutamate receptor 2 [1]): > 100 µM; Ki (Glutamate receptor 3): > 100 µM
– | – | – | – | N[C@H](Cc1ccc(Cl)c(-c2cccc(O)c2)c1)C(=O)O | Ki (Glutamate receptor 2 [1]): 21.9 µM; Ki (Glutamate receptor 3): > 100 µM
> 100 | – | – | – | CC(C)(C)c1onc(OCP(=O)(O)O)c1C[C@H](N)C(=O)O | Ki [6]: 16 µM
> 100 | – | – | – | NC(Cc1cc(Cl)c(Cl)c(-c2cncc(O)c2)c1)C(=O)O (racemic) | –
> 100 | – | – | – | NC(Cc1cccc(-c2cccc(O)c2)c1)C(=O)O (racemic) | –
> 100 | > 100 | 2 | 5.7 | NC(Cc1cc(-c2cncc(O)c2)c(Cl)c([N+](=O)[O-])c1)C(=O)O (racemic) | –
15 | > 100 | 0.92 | 6.04 | NC(Cc1cc(-c2cc(O)ccc2O)c(Cl)c([N+](=O)[O-])c1)C(=O)O (racemic) | pKi [5]: 4.83
> 100 | > 100 | 64 | 4.2 | NC(Cc1ccc([N+](=O)[O-])c(-c2ccc(O)cc2)c1)C(=O)O (racemic) | –
> 100 | > 100 | 23 | 4.66 | NC(Cc1cc(-c2ccc(O)cc2)c(Cl)c([N+](=O)[O-])c1)C(=O)O (racemic) | –
> 100 | > 100 | 10 | 4.99 | Nc1c(Cl)cc(CC(N)C(=O)O)cc1-c1cccc(O)c1 (racemic) | –
> 100 | > 100 | 21 | 4.67 | NC(Cc1ccc([N+](=O)[O-])c(-c2cccc(O)c2)c1)C(=O)O (racemic) | –
> 100 | > 100 | 14 | 4.84 | Nc1c(-c2cccc(O)c2)cc(CC(N)C(=O)O)cc1[N+](=O)[O-] (racemic) | –
> 100 | > 100 | 46 | 4.34 | NC(Cc1cc(Cl)cc(-c2ccc(O)cc2)c1)C(=O)O (racemic) | –
> 100 | > 100 | 9.3 | 5.06 | NC(Cc1cc(Cl)cc(-c2cccc(O)c2)c1)C(=O)O (racemic) | –
> 100 | > 100 | > 100 | – | COc1c(Cl)cc(CC(N)C(=O)O)cc1-c1cccc(O)c1 (racemic) | –
> 100 | > 100 | 8.2 | 5.09 | NC(Cc1cc(-c2cccc(O)c2)cc([N+](=O)[O-])c1)C(=O)O (racemic) | –
> 100 | > 100 | 65 | 4.19 | NC(Cc1ccc(Cl)c(-c2ccc(O)cc2)c1)C(=O)O (racemic) | –
26 | > 100 | 3.4 | 5.47 | NC(Cc1cc(-c2cc(O)cc(F)c2)c(Cl)c([N+](=O)[O-])c1)C(=O)O (racemic) | pKi [5]: 4.58
> 100 | > 100 | 9.2 | 5.04 | NC(Cc1ccc(Cl)c(-c2cccc(O)c2)c1)C(=O)O (racemic) | –
> 100 | > 100 | 7.9 | 5.1 | NC(Cc1cc(Cl)c(O)c(-c2cccc(O)c2)c1)C(=O)O (racemic) | –
> 100 | > 100 | 21 | 4.68 | NC(Cc1cc(-c2ccc(O)cc2)cc([N+](=O)[O-])c1)C(=O)O (racemic) | –
> 100 | > 100 | 9.1 | 5.05 | Nc1ccc(CC(N)C(=O)O)cc1-c1cccc(O)c1 (racemic) | –
> 100 | > 100 | 3.1 | 5.52 | NC(Cc1cc(-c2cccc(O)c2)c(Cl)c([N+](=O)[O-])c1)C(=O)O (racemic) | –
> 100 | – | – | – | NC(Cc1cc(Cl)c(Cl)c(-c2cccc(O)c2)c1)C(=O)O (racemic) | –
